US20150018411A1, “COMPOUNDS AS PPAR BETA/DELTA INHIBITORS FOR TREATING PPAR BETA/DELTA-MEDIATED DISEASES” (PHILIPPS-UNIVERSITAT MARBURG, priority 2011, published 2015)
Entries after “also recorded” stand apart in the source; their conditions may differ.

Assays:
ANGPTL4 gene expression = ANGPTL4 gene expression (qPCR) in WPMY-1 myofibroblasts; type: cell-based, human; conditions: WPMY-1, 1 μM, 24 hours, compared to DMSO-treated cells
Description: FIG. 5: Influence of the substances of this invention comparative compound (CC) 2, compound 1, compound 5, compound 2 and compound 3 on ANGPTL4 gene expression. • (A) Comparison of relative ANGPTL4 expression, (B) mean inhibitory concentration of substances of this invention. (A) Human myofibroblasts (WPMY-1) are treated for 24 hours with the substances of this invention (1 μM), then RNA is isolated, the cDNA synthesized and analyzed by qPCR, normalized to L27 gene expression. (B) Titration of the effect of substances of this invention on the endogenous ANGPTL4 expression in WPMY-1 cells (left) or peritoneal mouse macrophages (right) after cells have been treated for six hours with the substances of this invention compound 1 and compound 2, respectively; RNA isolation, cDNA synthesis and qPCR as described for (A). The relative expression is calculated in relation to DMSO-treated cells. All values are average values of triplicates (+1-standard deviation). Asterisks (***, **, *) indicate significant differences to DMSO-treated cells (***: p<0.001 after t-test; *: p <0.05).
The influence of substances of this invention on PPAR-beta/delta regulated genes like for example ANGPTL4 which codes for the angiopoietin-like protein ANGPTL4 is assessed in different cells with a confluence of 70% to 80% in a 6-well cell culture plate. For this purpose, cultivated human myofibroblasts (WPMY-1), peritoneal mouse macrophages or cells of the human breast cancer cell line MDA-MB-231 are treated for 24 hours with 1 μM of the substances of this invention. Cells of the breast cancer cell line are in addition stimulated for 6 hours with TGF-beta2 (2 ng/ml) which is commercially available. Subsequently, RNA is isolated from the cells by procedures known to the expert and analyzed by quantitative PCR (qPCR, real time qPCR, RT-qPCR) also known to those skilled in the art. […]

GST-PPAR beta/delta LBD [1] = biological target: T1, GST-PPAR beta/delta LBD (Homo sapiens, UniProt Q03181); assay: Ligand-induced binding of corepressor peptide SMRT-ID2, TR-FRET; type: biochemical; conditions: concentration dependent
T1 construct: GST-PPAR beta/delta LBD (GST=glutathione S-transferase); purchased Invitrogen, Darmstadt, Germany
T1 sequence (Q03181 211-439 limits assumed): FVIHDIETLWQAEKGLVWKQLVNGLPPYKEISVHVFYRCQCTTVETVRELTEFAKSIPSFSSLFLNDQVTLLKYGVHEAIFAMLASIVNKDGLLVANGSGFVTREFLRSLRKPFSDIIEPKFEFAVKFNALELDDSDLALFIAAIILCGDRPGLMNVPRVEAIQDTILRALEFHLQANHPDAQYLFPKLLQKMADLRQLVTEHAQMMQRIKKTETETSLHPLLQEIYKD
Description: FIG. 2: Induction of corepressor peptide binding to GST-PPAR beta/delta ligand binding domain (LBD) in vitro in dependency of the concentration of the substances of this invention comparative compound (CC) 2, compound 1 (A), compound 2 (B), compound 3 (C), compound 4 (D) and compound 5 (E). The interaction of fluorescein-labeled SMRT-ID2 peptide with recombinant GST-PPAR beta/delta LBD bound to a terbium-labeled anti-GST antibody is determined by TR-FRET analysis. Shown is the ratio of fluorescence intensity at 520 nm (fluorescein emission, excited by terbium emission) and 495 nm (terbium emission). All data points represent average values of triplicates (+/−standard deviation).
B) The ligand-induced binding of the commercially available fluorescein-labeled corepressor peptide SMRT-ID2 ([…]) (Invitrogen, Darmstadt, Germany) to GST-PPAR beta/delta is for example measured by TR-FRET analysis using a terbium-labeled anti-GST antibody in a VICTOR3V Multilabel Counter (WALLAC 1420; PerkinElmer Life and Analytical Sciences, Rodgau, Germany). The measurement is performed in a buffer composed of 100 mM KC, 20 mM Tris pH 7.9, 0.01% Triton X100 and 1 μg/μL bovine serum albumin.

PPAR beta/delta = biological target: T2, PPAR beta/delta (Homo sapiens, UniProt Q03181); assay: Agonist-induced transcriptional activity, luciferase reporter in WPMY-1 cells; type: cell-based; conditions: human WPMY-1 myofibroblasts, 500 nM substance, 500 nM agonist L165041
T2 construct: expressed in transfected cells; host or cells: WPMY-1 human myofibroblasts, transient transfection with PEI
T2 sequence (Q03181 1-441): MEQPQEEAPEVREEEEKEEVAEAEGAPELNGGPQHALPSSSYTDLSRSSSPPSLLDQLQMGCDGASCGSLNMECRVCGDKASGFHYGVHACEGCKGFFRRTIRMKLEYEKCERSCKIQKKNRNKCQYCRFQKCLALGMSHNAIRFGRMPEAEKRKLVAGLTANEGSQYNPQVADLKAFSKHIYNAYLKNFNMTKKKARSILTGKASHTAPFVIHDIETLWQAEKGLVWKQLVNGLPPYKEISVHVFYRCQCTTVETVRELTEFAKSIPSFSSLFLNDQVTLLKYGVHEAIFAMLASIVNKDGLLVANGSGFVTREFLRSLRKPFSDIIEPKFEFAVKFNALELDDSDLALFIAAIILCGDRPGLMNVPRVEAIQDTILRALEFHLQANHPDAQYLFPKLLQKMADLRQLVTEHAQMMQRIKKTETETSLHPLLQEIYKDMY
Description: FIG. 4: Effect of the substances of this invention comparative compound (CC) 2, compound 1, compound 5, compound 2 and compound 3 on the agonist-induced transcriptional activity of PPAR subtypes alpha (A), beta/delta (B) and gamma (C). • WPMY-1 cells are transiently transfected with a luciferase reporter plasmid. Four hours after transfection, cells are treated for 48 hours with the respective antagonist (500 nM), followed by a treatment with 300 nM of PPAR alpha agonist GW7647 (A), 500 nM of PPAR beta/delta agonist L165041 (B) or 300 nM of PPAR gamma agonist GW1929 (C). The relative induction is represented by the luciferase activity of the agonist-treated transfected cells in relation to solvent-treated transfected cells. Asterisks (**, *) indicate significant differences to untreated cells (after t-test; **: p<0.01; *: p<0.05). GW7647 is commercially available from Sigma-Aldrich (Steinheim, Germany). L165041 and GW1929 can be obtained from Biozol (Eching, Germany).
D) The influence of substances of this invention on the agonist-induced transcriptional activity of PPAR subtypes alpha, beta/delta or gamma is determined in WPMY-1 myofibroblasts transfected transiently with a luciferase reporter plasmid (LexA system) using polyethyleneimine (PEI) according to a method known to the expert. As agonists, substances GW7647 for PPAR alpha or L165041 for PPAR beta/delta or GW1929 for PPAR gamma known to the expert are used. WPMY-1 myofibroblast cells are initially cultured for example in a 12-well plate in DMEM medium (DMEM: Dulbecco's Modified Eagle Medium) according to a method known to the expert and to a confluence of 70% to 80%, and subsequently transfected with 2.5 μg of plasmid-DNA containing the luciferase reporter plasmid, expression plasmids for the respective PPAR subtypes and the Renilla-luciferase plasmid pRL-SV40 (Promega, Mannheim, Germany), and 2.5 μl PEI (1:1000 dilution, pH 7). Four hours after transfection, the cells are treated for 48 hours with 500 nM of the substances of this invention, and 24 later with 300 nM (GW7647 or GW1929, respectively) or 500 nM (L165041) of the respective agonist at 37° C. and 5% CO2 in an incubator. The luciferase assay is performed 48 hours after the first treatment according to the commercial method of the “dual-well-system” (pjk GmbH, Kleinblittersdorf, Germany), whereby for a normalization, not only the luciferase-, but also the Renilla activity is measured. Cells are initially lysed for this measurement, and 20 μl of the lysate is transferred into a white 96-well plate (Fisher Scientific, Hamburg, Germany). […] Mean values and standard deviation are calculated from values of three independent measurements.

GST-PPAR beta/delta LBD [2] = biological target: T1, GST-PPAR beta/delta LBD; assay: Competitive in vitro ligand binding, TR-FRET, displacement of Fluormone Pan-PPAR-Green; conditions: fluorescence ratio 520 nm/495 nm
Description: FIG. 1: Competitive in vitro ligand binding to PPAR beta/delta. • The displacement of ligand Fluormone® Pan-PPAR Green from recombinant GST-PPAR beta/delta ligand binding domain (LBD) by the substances of the present invention comparative compound (CC) 2, compound 1 (A), compound 2 (B), and compound 3 (C), compound 4 (D), compound 5 (E) is determined by TR-FRET analysis. Shown is the ratio of fluorescence intensity at 520 nm (fluorescein emission, excited by terbium emission) and 495 nm (terbium emission). All data points represent average values of triplicates (+/−standard deviation).
A) Competitive ligand-binding of the substances of this invention was measured in vitro using time-resolved fluorescence resonance energy transfer (TR-FRET) by competition with the commercially available fluorescent Fluormone® Pan-PPAR-Green for binding to the fusion protein GST-PPAR beta/delta LBD (GST=glutathione S-transferase; LBD=ligand binding domain) (Invitrogen, Darmstadt, Germany) in a VICTOR3V Multilabel Counter (WALLAC 1420; PerkinElmer Life and Analytical Sciences, Rodgau, Germany). The measurement was performed in 100 mM KC, 20 mM Tris pH 7.9, 0.01% Triton X100 and 1 μg/μL bovine serum albumin. GST is known to the expert in the field as suitable fusion partner for proteins. For this purpose, the ratio of fluorescence intensities at 520 nm (fluorescein emission excited by terbium emission) and at 495 nm (terbium emission) is determined.

Row | SMILES | reduction of relative expression of the ANGPTL4 gene (ANGPTL4 gene expression) | induction of interaction of PPAR beta/delta LBD with corepressor peptide SMRT-ID2 (GST-PPAR beta/delta LBD [1]) | agonist-induced transcriptional activity of PPAR beta/delta (luciferase induction) (PPAR beta/delta) | competition with Fluormone Pan-PPAR-Green for binding to GST-PPAR beta/delta LBD (GST-PPAR beta/delta LBD [2])
1 | COC(=O)c1sccc1S(=O)(=O)Nc1ccc(N2CCOCC2)cc1OC [comparison compound 2, methyl 3-(N-(2-methoxy-4-morpholinophenyl)sulfamoyl)thiophene-2-carboxylate, reference compound] | up to 10% |  |  | 
2 | COC(=O)c1sccc1S(=O)(=O)Nc1ccc(NCCC(C)C)cc1OC [compound 3, methyl 3-(N-(4-(isopentylamino)-2-methoxyphenyl)sulfamoyl)thiophene-2-carboxylate] |  | clearly demonstrate the interaction; also recorded: induce | inhibited in a PPAR subtype-specific manner | significant competition efficacy; also recorded: significant competition efficiency
3 | COC(=O)c1sccc1S(=O)(=O)Nc1ccc(NCc2ccccc2)cc1OC [compound 4, methyl 3-(N-(4-(benzylamino)-2-methoxyphenyl)sulfamoyl)thiophene-2-carboxylate] |  | clearly demonstrate the interaction; also recorded: induce |  | significant competition efficacy; also recorded: significant competition efficiency
